Tests used:
[1] = tested on: human breast cancer cell line MX-1; test: Enhancing activity for anti-tumor effect of TS-1 in nude mice with transplanted MX-1 (Test Example 2); type: in vivo, BALB/cA Jcl-nu mice; details: 200 mg/kg/day test drug + TS-1 8.3 mg/kg/day, oral, 14 days; MX-1 in nude mice; T/C on day 15 (FIG. 1)
Experimental: A human breast cancer cell line MX-1 was transplanted into the right-sided chest of 5- to 6-week-old male BALB/cA Jcl-nu mice. After transplantation, the major axis (mm) and minor axis (mm) of the tumor were measured, and the tumor volume (TV) was estimated by calculation. Using MiSTAT group separation program, the mice were then divided into individual groups so that the mean TV of each group is to be equal. The date at which mice were divided into the groups (n=5) was defined as day 0.
A test solution for tegafur/gimeracil/oteracil potassium (TS-1, manufactured by Taiho Pharmaceutical Co., Ltd.) single administration group, containing 0.5% hydroxypropylmethyl cellulose, 2.5% dimethylacetamide, 2.5% Tween 80, and 10% Cremophor as final concentrations, was prepared, provided at 8.3 mg/kg/day. The dose of TS-1 was represented by the amount of tegafur (FT). […]
TV on day 15 was measured, and relative tumor volume (RTV) was calculated. Then, T/C (%) was calculated according to a formula described below, and an anti-tumor effect was evaluated. […]

human dUTPase = human dUTPase (Homo sapiens (Human), UniProt P33316); test: Human dUTPase inhibitory effect ([5-3H]dUMP production from [5-3H]dUTP); type: biochemical
Chain of human dUTPase (P33316 94-252): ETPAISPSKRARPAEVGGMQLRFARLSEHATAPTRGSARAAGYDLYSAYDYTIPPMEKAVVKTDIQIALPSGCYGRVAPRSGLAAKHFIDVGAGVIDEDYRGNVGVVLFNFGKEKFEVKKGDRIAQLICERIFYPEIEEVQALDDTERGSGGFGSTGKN
Experimental: The inhibitory activity of these compounds of the present invention against human dUTPase was determined by measuring the production of [5-^3H]deoxyuridine monophosphate (hereinafter, referred to as [5-^3H]dUMP) from [5-^3H]deoxyuridine triphosphate (hereinafter, referred to as [5-^3H]dUTP) according to a method shown below.
Specifically, 0.2 mL in total of a solution containing 0.02 mL of 1 μM dUTP (including 588 Bq/mL [5-^3H]dUTP), 0.05 mL of a 0.2 M Tris buffer solution (pH 7.4), 0.05 mL of 16 mM magnesium chloride, 0.02 mL of 20 mM 2-mercaptoethanol, 0.02 mL of a 1% aqueous solution of fetal bovine serum-derived albumin, 0.02 mL of varying concentrations of test compound solutions or pure water as a control, and 0.02 mL of a solution of human dUTPase, which is expressed in E. coli and then purified, was incubated at 37° C. for 15 minutes. After the incubation, the solution was heated at 100° C. for 1 minute to terminate the reaction, followed by centrifugation at 15000 rpm for 2 minutes. An aliquot (150 μL) of the supernatant obtained by centrifugation was analyzed using an Atlantis dC18 column (manufactured by Waters Corp., 4.6×250 mm) and a high-performance liquid chromatograph (manufactured by Shimadzu Corp., Prominence). […]
The inhibitory activity of the test compound was determined according to the formula shown below. […]

Row | Compound | enhancing activity for anti-tumor effect of TS-1 [1] | dUTPase inhibitory activity (in words) (human dUTPase; human dUTPase) | IC50 (human dUTPase; concentration inhibiting 50% of [5-3H]dUMP production by human dUTPase, 37° C., 15 minutes)
1 | O=c1ccn(COCCCC2(NS(=O)(=O)c3cccc(OCC4CC4)c3)CC2)c(=O)[nH]1 [Comparative Compound 1, 3-(cyclopropylmethoxy)-N-(1-(3-((2,4-dioxo-3,4-dihydropyrimidin-1(2H)-yl)methoxy)propyl)cyclopropyl)benzenesulfonamide] | not observed | strong | 
2 | CC[C@@H](NS(=O)(=O)CCCn1ccc(=O)[nH]c1=O)c1cccc(OCC2CC2)c1 [Compound 19, (R)—N-(1-(3-(cyclopropylmethoxy)phenyl)propyl)-3-(2,4-dioxo-3,4-dihydropyrimidin-1(2H)-yl)propane-1-sulfonamide] |  |  | 610 nM

From patent US8883759B2, “Anti-tumor effect potentiator” (Taiho Pharmaceutical Co., Ltd., priority 2009, dated 2014)
